Measurements published in ChEMBL document CHEMBL1158340, “Organoiodine (III)-mediated synthesis of 3-aryl/heteroaryl-5,7-dimethyl-1,2,4-triazolo[4,3-c]pyrimidines as antibacterial agents” (2009).
Values after ≈ are worked out from the molar mass of the structure shown. Active and inactive are the calls of the source. The calls are words filed in the database; no cut-off is given here.

Assays:
Assay type in all cases: functional
Bacillus subtilis [1] = assay: Antibacterial activity against Bacillus subtilis MTCC 8509 at 10 ug/mL by agar well diffusion method; details: for zone of inhibition at 10 µg/mL: read-out: DIZ
Bacillus subtilis [2] = assay: Antibacterial activity against Bacillus subtilis MTCC 8509 at 50 ug/mL by agar well diffusion method; details: for zone of inhibition at 50 µg/mL: read-out: DIZ
Bacillus subtilis [3] = assay: Antibacterial activity against Bacillus subtilis MTCC 8509 at 100 ug/mL by agar well diffusion method; details: read-out: DIZ
[4] = test system: Geobacillus stearothermophilus; assay: Antibacterial activity against Bacillus stearothermophilus MTCC 8508 at 10 ug/mL by agar well diffusion method; details: for zone of inhibition at 10 µg/mL: read-out: DIZ
[5] = test system: Geobacillus stearothermophilus; assay: Antibacterial activity against Bacillus stearothermophilus MTCC 8508 at 50 ug/mL by agar well diffusion method; details: for zone of inhibition at 50 µg/mL: read-out: DIZ
[6] = test system: Geobacillus stearothermophilus; assay: Antibacterial activity against Bacillus stearothermophilus MTCC 8508 at 100 ug/mL by agar well diffusion method; details: read-out: DIZ
Escherichia coli [7] = assay: Antibacterial activity against Escherichia coli MTCC 51 at 10 ug/mL by agar well diffusion method; details: for zone of inhibition at 10 µg/mL: read-out: DIZ
Escherichia coli [8] = assay: Antibacterial activity against Escherichia coli MTCC 51 at 50 ug/mL by agar well diffusion method; details: for zone of inhibition at 50 µg/mL: read-out: DIZ
Escherichia coli [9] = assay: Antibacterial activity against Escherichia coli MTCC 51 at 100 ug/mL by agar well diffusion method; details: read-out: DIZ
Pseudomonas putida [10] = assay: Antibacterial activity against Pseudomonas putida MTCC 121 at 10 ug/mL by agar well diffusion method; details: for zone of inhibition at 10 µg/mL: read-out: DIZ
Pseudomonas putida [11] = assay: Antibacterial activity against Pseudomonas putida MTCC 121 at 50 ug/mL by agar well diffusion method; details: read-out: DIZ
Pseudomonas putida [12] = assay: Antibacterial activity against Pseudomonas putida MTCC 121 at 100 ug/mL by agar well diffusion method; details: read-out: DIZ
Bacillus subtilis [13] = assay: Antibacterial activity against Bacillus subtilis MTCC 8509 after 24 hrs; details: MTCC 8509, 24 h
[14] = test system: Geobacillus stearothermophilus; assay: Antibacterial activity against Bacillus stearothermophilus MTCC 8508 after 24 hrs; details: MTCC 8508, 24 h
Escherichia coli [15] = assay: Antibacterial activity against Escherichia coli MTCC 51 after 24 hrs; details: MTCC 51, 24 h
Pseudomonas putida [16] = assay: Antibacterial activity against Pseudomonas putida MTCC 121 after 24 hrs; details: MTCC 121, 24 h

Structure (SMILES) | zone of inhibition at 10 µg/mL (Bacillus subtilis [1]) | zone of inhibition at 50 µg/mL (Bacillus subtilis [2]) | zone of inhibition at 100 µg/mL (Bacillus subtilis [3]) | zone of inhibition at 10 µg/mL [4] | zone of inhibition at 50 µg/mL [5] | zone of inhibition at 100 µg/mL [6] | zone of inhibition at 10 µg/mL (Escherichia coli [7]) | zone of inhibition at 50 µg/mL (Escherichia coli [8]) | zone of inhibition at 100 µg/mL (Escherichia coli [9]) | zone of inhibition at 10 µg/mL (Pseudomonas putida [10]) | zone of inhibition at 50 µg/mL (Pseudomonas putida [11]) | zone of inhibition at 100 µg/mL (Pseudomonas putida [12]) | MIC (Bacillus subtilis [13]) | MIC [14] | MIC (Escherichia coli [15]) | MIC (Pseudomonas putida [16]) | Activity (Bacillus subtilis [1]) | Activity [4] | Activity (Escherichia coli [7]) | Activity (Pseudomonas putida [10]) | further results
Cc1cc2nnc(-c3ccc(Br)cc3)n2c(C)n1 | 27.7 mm | 40.7 mm | 59.3 mm | 26.7 mm | 41.7 mm | 60.7 mm | 23.3 mm | 31.7 mm | 47.3 mm | 28.3 mm | 48.7 mm | 66.7 mm | 8 µg/mL (≈ 26.4 µM) | 8 µg/mL (≈ 26.4 µM) | 16 µg/mL (≈ 52.8 µM) | 4 µg/mL (≈ 13.2 µM) |  |  |  |  | 
Cc1cc2nnc(-c3ccc(Cl)cc3)n2c(C)n1 |  |  | 11.3 mm |  | 11.8 mm | 18.7 mm |  |  | 10.7 mm |  | 8.33 mm | 14.6 mm | > 250 µg/mL | 125 µg/mL (≈ 483 µM) | > 250 µg/mL | > 250 µg/mL | inactive | inactive | inactive | inactive | Activity (Bacillus subtilis [2]): inactive; Activity (Escherichia coli [8]): inactive
Cc1cc2nnc(-c3cccs3)n2c(C)n1 |  | 8.34 mm | 13.7 mm | 9.74 mm | 16.7 mm | 25.7 mm | 10.3 mm | 18.7 mm | 26.3 mm |  | 8.33 mm | 12.3 mm | > 250 µg/mL | 64 µg/mL (≈ 278 µM) | 64 µg/mL (≈ 278 µM) | > 250 µg/mL | inactive |  |  | inactive | 
CN[C@@H]1[C@H](O[C@H]2[C@H](O[C@H]3[C@H](O)[C@@H](O)[C@H](N=C(N)N)[C@@H](O)[C@@H]3N=C(N)N)O[C@@H](C)[C@]2(O)C=O)O[C@@H](CO)[C@H](O)[C@H]1O [STREPTOMYCIN] | 36.4 mm | 57.4 mm | 73.2 mm | 33.2 mm | 49.2 mm | 67.2 mm | 26.4 mm | 49.4 mm | 69.4 mm | 38.2 mm | 48.2 mm | 72.2 mm | 2 µg/mL (≈ 3.44 µM) | 2 µg/mL (≈ 3.44 µM) | 4 µg/mL (≈ 6.88 µM) | 4 µg/mL (≈ 6.88 µM) |  |  |  |  | 
Cc1cc2nnc(-c3ccc(Cl)cc3Cl)n2c(C)n1 | 30.7 mm | 47.7 mm | 67.3 mm | 29.7 mm | 48.3 mm | 66.3 mm | 37.3 mm | 63.7 mm | 75.3 mm | 29.3 mm | 49.7 mm | 67.7 mm | 4 µg/mL (≈ 13.6 µM) | 4 µg/mL (≈ 13.6 µM) | 1 µg/mL (≈ 3.41 µM) | 4 µg/mL (≈ 13.6 µM) |  |  |  |  | 
COc1cc(O)ccc1-c1nnc2cc(C)nc(C)n12 | 27.3 mm | 42.7 mm | 61.7 mm | 30.7 mm | 46.7 mm | 66.3 mm | 29.3 mm | 46.3 mm | 66.7 mm | 32.7 mm | 49.3 mm | 72.7 mm | 8 µg/mL (≈ 29.6 µM) | 4 µg/mL (≈ 14.8 µM) | 4 µg/mL (≈ 14.8 µM) | 2 µg/mL (≈ 7.4 µM) |  |  |  |  | 
Cc1cc2nnc(-c3cccnc3)n2c(C)n1 | 29.3 mm | 46.3 mm | 65.7 mm | 25.3 mm | 39.7 mm | 56.3 mm | 25.7 mm | 39.3 mm | 57.3 mm | 36.7 mm | 59.3 mm | 69.7 mm | 4 µg/mL (≈ 17.8 µM) | 8 µg/mL (≈ 35.5 µM) | 8 µg/mL (≈ 35.5 µM) | 2 µg/mL (≈ 8.88 µM) |  |  |  |  | 
O=C(N[C@H](CO)[C@H](O)c1ccc([N+](=O)[O-])cc1)C(Cl)Cl [CHLORAMPHENICOL] | 36.3 mm | 57.2 mm | 74.2 mm | 35.3 mm | 53.2 mm | 77.2 mm | 30.3 mm | 50.4 mm | 75.4 mm | 29.3 mm | 53.4 mm | 71.2 mm | 2 µg/mL (≈ 6.19 µM) | 2 µg/mL (≈ 6.19 µM) | 4 µg/mL (≈ 12.4 µM) | 2 µg/mL (≈ 6.19 µM) |  |  |  |  | 
Cc1cc2nnc(-c3ccccc3)n2c(C)n1 |  | 8.34 mm | 13.3 mm |  |  | 10.7 mm |  |  | 11.3 mm |  | 8.33 mm | 12.7 mm | > 250 µg/mL | > 250 µg/mL | > 250 µg/mL | > 250 µg/mL | inactive | inactive | inactive | inactive | Activity [5]: inactive; Activity (Escherichia coli [8]): inactive
COc1ccc(OC)c(-c2nnc3cc(C)nc(C)n23)c1 |  |  | 11.3 mm |  | 8.33 mm | 13.7 mm |  | 10.7 mm | 19.3 mm |  | 9.66 mm | 13.7 mm | > 250 µg/mL | > 250 µg/mL | 125 µg/mL (≈ 440 µM) | > 250 µg/mL | inactive | inactive | inactive | inactive | Activity (Bacillus subtilis [2]): inactive
Cc1cc2nnc(-c3ccc([N+](=O)[O-])cc3)n2c(C)n1 |  | 9.66 mm | 14.3 mm |  | 10.3 mm | 16.7 mm |  | 8.33 mm | 13.7 mm |  | 12.3 mm | 19.7 mm | 250 µg/mL (≈ 928 µM) | > 250 µg/mL | 250 µg/mL (≈ 928 µM) | 125 µg/mL (≈ 464 µM) | inactive | inactive | inactive | inactive | 
